Laboratory results as given in a melting point compilation (Tetko et al.; mined from patent text by program, amines drawn as free bases though some values may be those of a salt).

| SMILES | melting point |
| --- | --- |
| Cn1nc(-c2cccc(Cl)c2)cc1C(=O)O | 164 to 167 °C |
| CCOC(=O)c1cn(C23CC(C2)C3)c2cc(Cl)c(F)cc2c1=O | 223 to 225 °C |
| CC1(Cc2ccccc2)Cc2cc(OCC(=O)O)c(Cl)c(Cl)c2C1=O (stereo unspecified) | 167 to 168 °C |
| CCn1ncc2c1ncc1c(OCCC(C)C)nc3ncnn3c12 | 140 to 142 °C |
| CCC1(CC)Cc2cc(O)c(Cl)c(Cl)c2C1=O | 184 °C |
| CCOC(=O)c1cn(-c2ccc(F)cc2F)c2nc(N3CCNCC3)c(F)cc2c1=O | 208 to 211 °C |
| Cc1nc(NC(=O)c2ccc(S(C)(=O)=O)cc2)sc1C(=O)NCc1ccccc1 | 262 to 265 °C |
| COc1cc(C)c(C(=O)c2c(Cl)cncc2Cl)c(OC)c1OC | 109 to 111 °C |
| COc1c(Cl)cccc1NS(=O)(=O)c1cc(S(=O)(=O)Nc2cccc(Cl)c2OC)c2cc(O)ccc2c1 | 164 to 166 °C |
| Cc1ccc(-c2c3c(cc4ccc(O)cc24)-c2ccc(O)cc2CO3)cc1C | 218 to 221 °C |
| Cc1csc2nc(S(=O)(=O)Nc3ccccc3Cl)nn12 | 172 to 174 °C |
| CCOCc1nnc2c(C(F)(F)F)c(CN[C@H]3CC[C@@H](c4ccccc4)CC3)ccn12 | 137 °C |
| Cc1nc(N2CCN(Cc3ccccc3)C2=O)sc1C(=O)O | 248 to 249 °C |
| COC(=O)c1cc(OC)ccc1Oc1cc(Cl)ccc1[N+](=O)[O-] | 114 to 116 °C |
| Cc1cccc(C(N)c2ccc(OCCOc3ccc(C(N)c4cccc(C)c4)cc3)cc2)c1 (stereo unspecified) | 113 to 115 °C |
| CCOc1ccc(-c2ncccc2S(=O)(=O)Nc2ncc(C)nc2OC)cc1 | 162 to 163 °C |
| Cc1ccc2nc(CN3CCN(c4ccc(F)cc4)CC3)cn2c1 | 112 °C |
| Cc1cc(Oc2ncc(C(F)(F)F)cc2Cl)nn1C(=O)Nc1ccc(Cl)c(Cl)c1 | 150 to 152 °C |
| O=C(O)c1cccc(-n2ncc3c2CCc2ccccc2-3)c1 | 273 to 275 °C |
| CCOC(=O)c1cccc(-c2ccc3c(c2)C(O)CCC3)c1 (stereo unspecified) | 88 to 100 °C |
| O=C1c2ccccc2C(O)N1CCCCSc1ccncc1 (stereo unspecified) | 144 to 145 °C |
| CCCCCCCCCCCCCCOc1ccc(C(C)=O)o1 | 70 to 72 °C |
| COc1ccc(C(O)CCc2ccccc2O)cc1 (stereo unspecified) | 114 to 116 °C |
| CCOC1(OC)CC(C)=C(CCc2cccc(OC)c2)C=C1OC (stereo unspecified) | 178 to 180 °C |
| COC(=O)c1cc2c(C)ccc(C)c2n1OC | 90 to 91 °C |
| O=C(OC1c2nccnc2C(=O)N1c1ccc2ccc(Cl)cc2n1)N1CCNCC1 (stereo unspecified) | 242 °C |

| SMILES | melting point |
| --- | --- |
| Cc1ccc(-c2[nH]c(-c3ccncc3)nc2C(=O)Nc2nccs2)cc1 | > 250 °C |
| O=C(O)c1cc(S(=O)(=O)NCCc2ccc(Cl)cc2)ccc1Cl | 176 to 178 °C |
| OCC1OC(n2c(Cl)nc3c(Br)c(Br)c(Br)cc32)C(O)C1O (stereo unspecified) | 168 to 170 °C |
| CC(Nc1ccccc1)c1ccc(C(C)Nc2ccccc2)cc1 (stereo unspecified) | 169 to 170 °C |
| CC(C)(C)c1ccccc1N1CCN(C(=O)c2nc[nH]n2)CC1 | 295 °C |
| COc1cc(Nc2ncc3cc(-c4c(Cl)cccc4Cl)c(=O)n(C)c3n2)cc(OC)c1 | 228 to 230 °C |
| Clc1cc(Cl)cc(-c2nc(Cl)c3ccccc3n2)c1 | 274 °C |
| CCOC(=O)C=Cc1cc(N2C(=O)C3C4CC4CN3C2=O)c(F)cc1Cl (stereo unspecified) | 123 to 124 °C |
| O=C(O)c1ccc2ccc(C(F)(F)F)nc2c1O | 209 to 211 °C |
| C#CCOc1cc(NNC(=S)C(C)(C)C)c(Cl)cc1Cl | 126 to 128 °C |
| CCOC(=O)c1cc(-n2c(OC)nc(C(F)(F)F)cc2=O)c(F)cc1Cl | 91 to 93 °C |
| CCN(CC)S(=O)(=O)Oc1ccc2c(c1)CCC1C2CCC2(C)C(O)C(O)CC12 (stereo unspecified) | 121 to 124 °C |
| Cc1nn(C)c(Oc2ccc([N+](=O)[O-])cc2[N+](=O)[O-])c1C(=O)c1ccc(Cl)cc1Cl | 190 to 192 °C |
| CCNC1(c2ccccc2Cl)C(=O)Nc2ccc(OCC)cc21 (stereo unspecified) | 195 to 200 °C |
| CCc1nc(OCc2ccc(Oc3ccc(C(F)(F)F)cc3)cc2)c(C)c(=O)n1CC | 93.8 to 95.7 °C |
| CCN(CC)C(=O)c1ccccc1-c1ccc2ccccc2c1 | 52 to 53 °C |
| O=C(Cc1ccccc1)NCO | 78 °C |
| Cc1cc(Br)c2c(c1)C(C(=O)O)c1ccccc1CO2 (stereo unspecified) | 196 to 197 °C |
| O=C1OC(C2CCCCC2)(C2CCCCC2)C2CNCCN12 (stereo unspecified) | 151 to 152 °C |
| Fc1nc(F)c(F)c(N2CCCNCC2)c1F | 58 to 61 °C |
| COC(=O)c1nn(-c2ccc(CBr)cc2)nc1C | 122 to 125 °C |
| CCCCOCCOc1ccc(-c2ccc3c(c2)C=C(C(=O)Nc2ccc(S(=O)Cc4nccn4CCCC(=O)NC)cc2)CCN3CC(C)C)cc1 (stereo unspecified) | 159 to 161 °C |
| Cc1ccc2scc(CCNc3ncnc4c3ncn4C3OC(CO)C(O)C3O)c2c1 (stereo unspecified) | 158 to 160 °C |
| CC(=O)C1=CCC2C3CCC4CC=CCC4(C)C3CCC12C (stereo unspecified) | 143 to 145 °C |
| COC1=CC(=O)C(Cc2ncn(C(c3ccccc3)(c3ccccc3)c3ccccc3)c2C)CC1 (stereo unspecified) | 145 to 148 °C |
